Results taken from the NIST ThermoML archive (doi:10.1021/je060107n).
Numbers after ± are expanded uncertainties.

Assay: mn = molality of the nth substance listed, in mol/kg
Settings: 101 kPa, Liquid; for viscosity: Capillary tube (Ostwald / Ubbelohde) method; for speed of sound: Linear variable-path acoustic interferometer

CC(=O)[O-].CC(=O)[O-].[Mg+2] [magnesium acetate] + O
Settings	speed of sound, 273.15 K [m/s]	speed of sound, 278.15 K [m/s]	speed of sound, 283.15 K [m/s]	speed of sound, 288.15 K [m/s]	viscosity, 273.15 K [mPa·s]	viscosity, 278.15 K [mPa·s]	viscosity, 283.15 K [mPa·s]	viscosity, 288.15 K [mPa·s]	viscosity, 293.15 K [mPa·s]
m1 = 0.0414	1411.1 ± 1.8	1433.9 ± 1.9	1453.9 ± 1.9	1471.7 ± 1.9	1.895 ± 0.026	1.603 ± 0.022	1.374 ± 0.019	1.196 ± 0.016	1.052 ± 0.014
m1 = 0.0831	1421.7 ± 1.9	1443.6 ± 1.9	1464.2 ± 1.9	1481.5 ± 1.9	1.974 ± 0.027	1.663 ± 0.023	1.423 ± 0.02	1.238 ± 0.017	1.089 ± 0.015
m1 = 0.1671	1435.8 ± 1.9	1458.6 ± 1.9	1477 ± 1.9	1494.1 ± 1.9	2.142 ± 0.03	1.805 ± 0.025	1.54 ± 0.021	1.335 ± 0.018	1.17 ± 0.016
m1 = 0.4247	1486.1 ± 1.9	1504.5 ± 1.9	1522.7 ± 1.9	1535.1 ± 1.9	2.763 ± 0.04	2.301 ± 0.033	1.954 ± 0.027	1.677 ± 0.023	1.461 ± 0.02
m1 = 0.646	1523.6 ± 1.9	1539.4 ± 1.9	1553.8 ± 1.9	1566.5 ± 1.9	3.52 ± 0.05	2.887 ± 0.042	2.444 ± 0.034	2.072 ± 0.029	1.788 ± 0.024
m1 = 0.8751	1563.5 ± 1.9	1571.6 ± 1.9	1584.2 ± 1.9	1601.1 ± 1.9	4.302 ± 0.064	3.533 ± 0.051	2.956 ± 0.042	2.499 ± 0.035	2.15 ± 0.029
m1 = 1.106	1599.6 ± 1.9	1611.8 ± 1.9	1622.1 ± 1.9	1631.4 ± 1.9	5.537 ± 0.081	4.511 ± 0.066	3.725 ± 0.053	3.138 ± 0.044	2.678 ± 0.037
m1 = 1.354	1633.9 ± 1.9	1644.1 ± 1.9	1651.4 ± 2	1659.4 ± 2	7.125 ± 0.093	5.709 ± 0.085	4.687 ± 0.068	3.895 ± 0.055	3.294 ± 0.046
m1 = 1.608	1670.3 ± 2	1679.6 ± 2	1685.9 ± 2	1692.8 ± 2	7.125 ± 0.15	5.709 ± 0.085	4.687 ± 0.068	3.895 ± 0.055	3.294 ± 0.046
m1 = 1.866	1705.9 ± 2	1713 ± 2	1718.2 ± 2	1722.3 ± 2	12.12 ± 0.17	9.522 ± 0.15	7.615 ± 0.11	6.192 ± 0.09	5.143 ± 0.073
m1 = 2.134	1742.2 ± 2	1746.8 ± 2	1750.4 ± 2	1752.7 ± 2	16.35 ± 0.27	12.57 ± 0.2	9.905 ± 0.15	8.005 ± 0.12	6.573 ± 0.095
m1 = 2.411	1777.1 ± 2	1780.1 ± 2	1781.4 ± 2	1782.9 ± 2	23.36 ± 0.36	17.59 ± 0.29	13.67 ± 0.21	10.8 ± 0.16	8.745 ± 0.13
m1 = 2.622	1797.1 ± 2	1799.2 ± 2	1799.1 ± 2	1799.1 ± 2	28.17 ± 0.48	21.2 ± 0.35	16.25 ± 0.26	12.79 ± 0.2	10.25 ± 0.15
m1 = 3.043	1840.9 ± 2.1	1839.8 ± 2.1	1838.2 ± 2.1	1835.6 ± 2.1	45.46 ± 0.99	33.22 ± 0.58	24.92 ± 0.41	19.07 ± 0.3	–
m1 = 3.437	1885.2 ± 2.1	1881.6 ± 2.1	1877.4 ± 2.1	1872.2 ± 2.1	85.35 ± 1.8	59.47 ± 1.1	43.12 ± 0.76	31.95 ± 0.54	–
m1 = 3.819	1910.1 ± 2.1	1903.6 ± 2.1	1897.9 ± 2.1	1891.9 ± 2.1	–	–	–	–	–
m1 = 4.001	–	–	–	–	167.7 ± 5.4	110.6 ± 2.6	77.03 ± 1.5	55.77 ± 0.97	–
m1 = 4.547	1953.7 ± 2.2	1945.3 ± 2.2	1936.1 ± 2.2	1927.4 ± 2.1	–	–	–	–	–
m1 = 4.563	–	–	–	–	374.7 ± 14	234.4 ± 7.8	153.7 ± 4.1	105.5 ± 2.3	–
m1 = 4.929	–	–	–	–	–	–	208.4 ± 5.9	140.3 ± 3.6	–
m1 = 5.165	–	–	1964.1 ± 2.2	1953.3 ± 2.2	–	–	–	–	–
